Measurements as given in patent US10493125B2 (Merck Sharp & Dohme Corp., priority 2015, dated 2019).
Read-outs that look alike come from different tables or passages of the source. Starred links: 1 amine or outer side, 2 acyl side, 3 side chain; linkers in the order of their positions; H or OH if unused. Non-standard residues stand in square brackets, D forms with d. Residues, ends and D or L forms follow the SMILES beside them. Groups on a side chain read outwards from the residue. No end group written: not given here. *: point of attachment. γGlu = O=C(O)[C@H](CCC(=O)[*:2])N[*:1]; Palmitoyl = CCCCCCCCCCCCCCCC(=O)*

What was measured:
[1] = biological target: T1, human GCGR (Homo sapiens, UniProt P47871); experiment: cAMP activity assay (HitHunter cAMP XS), cells expressing human GCGR; type: cell-based; settings: for EC50: read-out: EC50 hGCGR; for Ratio: EC50 hGCGR divided by EC50 hGLP1
T1 construct: expressed in transfected cells
T1 sequence (P47871 26-477): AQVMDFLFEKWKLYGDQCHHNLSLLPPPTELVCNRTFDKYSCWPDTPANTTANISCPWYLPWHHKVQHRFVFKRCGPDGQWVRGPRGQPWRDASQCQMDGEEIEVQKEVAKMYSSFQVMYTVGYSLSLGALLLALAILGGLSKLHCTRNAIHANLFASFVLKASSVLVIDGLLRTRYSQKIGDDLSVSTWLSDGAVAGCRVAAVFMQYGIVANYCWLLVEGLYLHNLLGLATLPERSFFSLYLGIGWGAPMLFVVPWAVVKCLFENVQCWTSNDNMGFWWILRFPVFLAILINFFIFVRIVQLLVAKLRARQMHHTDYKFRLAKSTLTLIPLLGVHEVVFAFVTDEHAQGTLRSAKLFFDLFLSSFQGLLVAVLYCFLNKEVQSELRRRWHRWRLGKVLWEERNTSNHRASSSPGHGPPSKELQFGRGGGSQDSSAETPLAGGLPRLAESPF
Protocol: (§1) Peptides were dissolved in 100% DMSO and serially diluted to generate 10 point titrations. The peptide solutions were then transferred into 384-well assay plates (150 nL/well). Assay ready frozen cells expressing human GLP1R or human GCGR were suspended in growth media consisting of DMEM medium (GIBCO), 10% FBS (GIBCO), 1×NEAA(GIBCO), 1× P/S (GIBCO), 10 ug/ml Blasticidin (GIBCO) and 200 μg/mL Hygromycin (GIBCO). […] The cell suspensions (15 μL) were then added to the assay plates containing the peptide solutions (30,000 cells/well for human GCGR; 10,000 cells/well for human GLP1R). The cells were incubated for 1 hour at room temperature in the dark. Production of cAMP was determined using HitHunter™ cAMPXS kits (DiscoverX) following manufacturer protocol. The plates were incubated for overnight at room temperature in the dark. Luminescence was measured using an EnVision Multilabel plate reader (Perkin Elmer). […] EC50 values were calculated using uses a 4 parameter logistic fit based on the Levenberg-Marquardt algorithm.

[2] = biological target: T2, human GLP1R (Homo sapiens, UniProt P43220); experiment: cAMP activity assay (HitHunter cAMP XS), cells expressing human GLP1R; type: cell-based
T2 construct: expressed in transfected cells
T2 sequence (P43220 24-463): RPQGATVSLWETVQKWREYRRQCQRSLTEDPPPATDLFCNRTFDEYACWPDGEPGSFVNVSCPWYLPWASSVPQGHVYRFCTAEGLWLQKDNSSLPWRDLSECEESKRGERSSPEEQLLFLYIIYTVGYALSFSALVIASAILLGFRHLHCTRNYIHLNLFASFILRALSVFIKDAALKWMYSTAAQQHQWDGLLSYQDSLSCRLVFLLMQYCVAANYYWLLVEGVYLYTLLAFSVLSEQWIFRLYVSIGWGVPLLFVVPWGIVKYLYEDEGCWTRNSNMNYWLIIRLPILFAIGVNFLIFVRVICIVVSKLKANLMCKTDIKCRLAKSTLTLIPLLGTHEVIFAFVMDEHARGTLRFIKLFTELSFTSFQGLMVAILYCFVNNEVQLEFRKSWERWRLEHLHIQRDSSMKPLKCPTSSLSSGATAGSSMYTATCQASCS
Protocol: as §1

[3] = Table 2, cAMP production, read-out: EC50 hGLP1R
[4] = Table 7, lipidated analogs vs parental peptides
[5] = Table 7, lipidated analogs vs parental peptides, read-out: EC50 hGLP1

| EC50 ([1]; Table 2, cAMP production) | EC50 [2, 3] | Ratio ([1]; Table 7) | EC50 [1, 4] | EC50 [2, 5] | Compound |
| --- | --- | --- | --- | --- | --- |
| – | – | 0.004 | 20 pM | ≥ 5000 pM | CC(C)C[C@H](NC(=O)[C@H](CC(C)C)NC(=O)[C@H](CCCCN)NC(=O)[C@H](CO)NC(=O)[C@H](Cc1ccc(O)cc1)NC(=O)[C@H](CC(=O)O)NC(=O)[C@H](CO)NC(=O)[C@H](CC(C)C)NC(=O)[C@H](Cc1ccccc1)NC(=O)[C@@H](NC(=O)CNC(=O)[C@H](CCC(N)=O)NC(=O)[C@@H](CO)NC(=O)[C@@H](N)Cc1c[nH]cn1)[C@@H](C)O)C(=O)N[C@@H](CC(=O)O)C(=O)N[C@@H](CO)C(=O)N[C@@H](CCCNC(=N)N)C(=O)N[C@@H](C)C(=O)N[C@@H](C)C(=O)N[C@@H](CCC(N)=O)C(=O)N[C@@H](CC(=O)O)C(=O)N[C@@H](Cc1ccccc1)C(=O)N[C@H](C(=O)N[C@@H](CCC(N)=O)C(=O)N[C@@H](Cc1c[nH]c2ccccc12)C(=O)N[C@@H](CC(C)C)C(=O)N[C@@H](CC(C)C)C(=O)N[C@@H](CCC(N)=O)C(=O)N[C@H](C(N)=O)[C@@H](C)O)C(C)C [TP552] (H-H[dS]QGTFLSDYSKLLDSRAAQDFVQWLLQT-NH2; N-terminus assumed) |
| – | – | 0.4 | 20 pM | 50 pM | CCCCCCCCCCCCCCCC(=O)N[C@@H](CCC(=O)N[C@@H](CCC(=O)NCCCC[C@H](NC(=O)[C@H](CC(=O)O)NC(=O)[C@H](CO)NC(=O)[C@@H](NC(=O)[C@H](Cc1ccccc1)NC(=O)[C@@H](NC(=O)CNC(=O)[C@H](CCC(N)=O)NC(=O)[C@@H](CO)NC(=O)[C@@H](N)Cc1c[nH]cn1)[C@@H](C)O)[C@@H](C)O)C(=O)N[C@@H](CO)C(=O)N[C@@H](CCCCN)C(=O)N[C@@H](Cc1ccc(O)cc1)C(=O)N[C@@H](CC(C)C)C(=O)N[C@@H](CC(=O)O)C(=O)N[C@@H](C)C(=O)N[C@@H](CCCNC(=N)N)C(=O)N[C@@H](C)C(=O)N[C@@H](C)C(=O)N[C@@H](Cc1c[nH]cn1)C(=O)N[C@@H](CC(=O)O)C(=O)N[C@@H](Cc1ccccc1)C(=O)N[C@H](C(=O)N[C@@H](CCC(N)=O)C(=O)N[C@@H](Cc1c[nH]c2ccccc12)C(=O)N[C@@H](CC(C)C)C(=O)N[C@@H](CC(C)C)C(=O)N[C@@H](CC(N)=O)C(=O)N[C@H](C(N)=O)[C@@H](C)O)C(C)C)C(=O)O)C(=O)O [TP559] (H-H[dS]QGTFTSDK([γGlu-γGlu-Palmitoyl])SKYLDARAAHDFVQWLLNT-NH2) |
| 30 pM | 20 pM | – | – | – | H-HSQGIFFSDYSKYLDSRRAQDFVQWLMNT-NH2 [PD52] |
| 30 pM | 20 pM | – | – | – | H-HSQGTFFSDYSKYLDSRRAQDFVQWLLET-NH2 [PD58] |
| 20 pM | 30 pM | – | – | – | H-HSQGTFTSDYSKYLDSLMAQDFVQWLMST-NH2 [PD22] |
| 80 pM | 50 pM | – | – | – | HSQGTFTSDYSKYLDSRMAYDFVQWLMNT-NH2 [PD56] |

Further lines, the compound ahead of its results:

| Compound | EC50 ([1]; Table 2, cAMP production) | EC50 [2, 3] | Ratio ([1]; Table 7) | EC50 [1, 4] | EC50 [2, 5] |
| --- | --- | --- | --- | --- | --- |
| CC(C)C[C@H](NC(=O)[C@H](CC(C)C)NC(=O)[C@H](Cc1c[nH]c2ccccc12)NC(=O)[C@H](CCC(N)=O)NC(=O)[C@@H](NC(=O)[C@H](Cc1ccccc1)NC(=O)[C@H](CC(=O)O)NC(=O)[C@H](CCC(N)=O)NC(=O)[C@H](C)NC(=O)[C@H](CCCNC(=N)N)NC(=O)[C@H](CCCNC(=N)N)NC(=O)[C@H](CO)NC(=O)[C@H](CC(=O)O)NC(=O)[C@H](CC(C)C)NC(=O)[C@H](Cc1ccc(O)cc1)NC(=O)[C@H](CCCCN)NC(=O)[C@H](CO)NC(=O)[C@H](Cc1ccc(O)cc1)NC(=O)[C@H](CC(=O)O)NC(=O)[C@H](CO)NC(=O)[C@@H](NC(=O)[C@H](Cc1ccccc1)NC(=O)[C@@H](NC(=O)CNC(=O)[C@H](CCC(N)=O)NC(=O)[C@H](CO)NC(=O)[C@@H](N)Cc1c[nH]cn1)[C@@H](C)O)[C@@H](C)O)C(C)C)C(=O)N[C@@H](CC(N)=O)C(=O)N[C@@H](CCC(N)=O)C(N)=O [PD57] | 20 pM | 10 pM | – | – | – |
| CC(C)C[C@H](NC(=O)[C@H](CC(C)C)NC(=O)[C@H](Cc1c[nH]c2ccccc12)NC(=O)[C@H](CCC(N)=O)NC(=O)[C@@H](NC(=O)[C@H](Cc1ccccc1)NC(=O)[C@H](CC(=O)O)NC(=O)[C@H](CCC(N)=O)NC(=O)[C@H](C)NC(=O)[C@H](CCCNC(=N)N)NC(=O)[C@H](CCCNC(=N)N)NC(=O)[C@H](CO)NC(=O)[C@H](CC(=O)O)NC(=O)[C@H](CC(C)C)NC(=O)[C@H](Cc1ccc(O)cc1)NC(=O)[C@H](CCCCN)NC(=O)[C@H](CO)NC(=O)[C@H](Cc1ccc(O)cc1)NC(=O)[C@H](CC(=O)O)NC(=O)[C@H](CO)NC(=O)[C@@H](NC(=O)[C@H](Cc1ccccc1)NC(=O)[C@@H](NC(=O)CNC(=O)[C@H](CCC(N)=O)NC(=O)[C@H](CO)NC(=O)[C@@H](N)Cc1c[nH]cn1)[C@@H](C)O)[C@@H](C)O)C(C)C)C(=O)N[C@@H](CC(=O)O)C(=O)N[C@@H](CO)C(N)=O [PD59] | 20 pM | 10 pM | – | – | – |
| CCCCCCCCCCCCCCCC(=O)N[C@@H](CCC(=O)N[C@@H](CCC(=O)NCCCC[C@H](NC(=O)[C@H](CC(=O)O)NC(=O)[C@H](CO)NC(=O)[C@@H](NC(=O)[C@H](Cc1ccccc1)NC(=O)[C@@H](NC(=O)CNC(=O)[C@H](CCC(N)=O)NC(=O)[C@@H](CO)NC(=O)[C@@H](N)Cc1c[nH]cn1)[C@@H](C)O)[C@@H](C)O)C(=O)N[C@@H](CO)C(=O)N[C@@H](CCCCN)C(=O)N[C@@H](Cc1ccc(O)cc1)C(=O)N[C@@H](CC(C)C)C(=O)N[C@@H](CC(=O)O)C(=O)N[C@@H](CC(N)=O)C(=O)N[C@@H](CCCCN)C(=O)N[C@@H](CCCNC(=N)N)C(=O)N[C@@H](C)C(=O)N[C@@H](CCC(N)=O)C(=O)N[C@@H](CC(=O)O)C(=O)N[C@@H](Cc1ccccc1)C(=O)N[C@H](C(=O)N[C@@H](CCC(N)=O)C(=O)N[C@@H](Cc1c[nH]c2ccccc12)C(=O)N[C@@H](CC(C)C)C(=O)N[C@@H](CCSC)C(=O)N[C@@H](CCC(N)=O)C(=O)N[C@H](C(N)=O)[C@@H](C)O)C(C)C)C(=O)O)C(=O)O [TP534] (H-H[dS]QGTFTSDK([γGlu-γGlu-Palmitoyl])SKYLDNKRAQDFVQWLMQT-NH2; N-terminus assumed) | – | – | 0.5 | 10 pM | 20 pM |
| CCCCCCCCCCCCCCCC(=O)N[C@@H](CCC(=O)N[C@@H](CCC(=O)NCCCC[C@H](NC(=O)[C@H](CC(=O)O)NC(=O)[C@H](CO)NC(=O)[C@@H](NC(=O)[C@H](Cc1ccccc1)NC(=O)[C@@H](NC(=O)CNC(=O)[C@H](CCC(N)=O)NC(=O)[C@@H](CO)NC(=O)[C@@H](N)Cc1c[nH]cn1)[C@@H](C)O)[C@@H](C)O)C(=O)N[C@@H](CO)C(=O)N[C@@H](CCCCN)C(=O)N[C@@H](Cc1ccc(O)cc1)C(=O)N[C@@H](CC(C)C)C(=O)N[C@@H](CC(=O)O)C(=O)N[C@@H](CO)C(=O)N[C@@H](CCCNC(=N)N)C(=O)N[C@@H](CCCNC(=N)N)C(=O)N[C@@H](C)C(=O)N[C@@H](Cc1c[nH]cn1)C(=O)N[C@@H](CC(=O)O)C(=O)N[C@@H](Cc1ccccc1)C(=O)N[C@H](C(=O)N[C@@H](CCC(N)=O)C(=O)N[C@@H](Cc1c[nH]c2ccccc12)C(=O)N[C@@H](CC(C)C)C(=O)N[C@@H](CC(C)C)C(=O)N[C@@H](CC(N)=O)C(=O)N[C@H](C(N)=O)[C@@H](C)O)C(C)C)C(=O)O)C(=O)O [TP535] (H-H[dS]QGTFTSDK([γGlu-γGlu-Palmitoyl])SKYLDSRRAHDFVQWLLNT-NH2; N-terminus assumed) | – | – | 0.4 | 20 pM | 50 pM |
| H-HSQGTFTSDYSKYLDSIRAQDFVQWLMDT-NH2 [PD36] | 40 pM | 60 pM | – | – | – |
| H-HSQGTFTSDYSKYLDSRRAHDFVQWLLNT-NH2 [PD29] | 20 pM | 20 pM | 1 | – | – |
| HSQGTFTSDYSKYLDELRAYDFVQWLMNT-NH2 [PD27] | 50 pM | 30 pM | – | – | – |
| HSQGTFTSDYSKYLDNKRAQDFVQWLMQT-NH2 [PD37] | – | – | 3.2 | 160 pM | 50 pM |
| HSQGTFTSDYSKYLDSKRAHDFVQWLLNT-NH2 [PD45] | 30 pM | 20 pM | – | – | – |
